# Measured values reported in PubChem BioAssay (NCI).
#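 Dose response: 5 concentrations. Exposure: 48 h. Format: 96-well plates. Endpoint: linear interpolation; highest concentration if not reached. GI50 is the concentration that inhibits growth by half. Definition used: TGI = concentration required for complete inhibition of growth.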
# Tested on: KM20L2 colon
# Assay: inhibition of tumour cell growth, NCI panel, 48 h
Compound,TGI,GI50
Cc1cn(C2CC(N(O)Cc3ccccc3)C(CO)O2)c(=O)[nH]c1=O (stereo not drawn),> 100 µM,
O=c1[nH]cc(COCC(F)(F)C(F)(F)C(F)(F)C(F)F)c(=O)[nH]1,> 100 µM,
NC1CCCC[C@H]1N.N[C@@H]1CCCC[C@@H]1N.O=C(P(=O)([O-])[O-])P(=O)([O-])[O-].[Pt+4].[Pt+4],> 100 µM,> 100 µM
CC1=C(C(=O)Nc2c(C)cccc2C)C(c2ccccc2Cl)C(C(=O)Nc2c(C)cccc2C)=C(C)N1,> 100 µM,
COc1c(C)c2c(c(C)c1Cl)Oc1c(C=O)c(O)c(Cl)c(C)c1C(=O)O2,82.9 µM,

# Tested on: LOX IMVI melanoma
# Assay: inhibition of tumour cell growth, NCI panel, 48 h
Compound,TGI,GI50
Cc1cn(C2CC(N(O)Cc3ccccc3)C(CO)O2)c(=O)[nH]c1=O (stereo not drawn),> 100 µM,
O=c1[nH]cc(COCC(F)(F)C(F)(F)C(F)(F)C(F)F)c(=O)[nH]1,> 100 µM,
NC1CCCC[C@H]1N.N[C@@H]1CCCC[C@@H]1N.O=C(P(=O)([O-])[O-])P(=O)([O-])[O-].[Pt+4].[Pt+4],> 100 µM,> 100 µM
CC1=C(C(=O)Nc2c(C)cccc2C)C(c2ccccc2Cl)C(C(=O)Nc2c(C)cccc2C)=C(C)N1,> 100 µM,
N#CC(NNC(=O)Cc1ccccc1)c1ccccc1O (stereo not drawn),31.5 µM,
COc1c(C)c2c(c(C)c1Cl)Oc1c(C=O)c(O)c(Cl)c(C)c1C(=O)O2,90.7 µM,

# Tested on: LXFL 529 NSCLC
# Assay: inhibition of tumour cell growth, NCI panel, 48 h
Compound,TGI,GI50
Cc1cn(C2CC(N(O)Cc3ccccc3)C(CO)O2)c(=O)[nH]c1=O (stereo not drawn),> 100 µM,
O=c1[nH]cc(COCC(F)(F)C(F)(F)C(F)(F)C(F)F)c(=O)[nH]1,> 100 µM,
NC1CCCC[C@H]1N.N[C@@H]1CCCC[C@@H]1N.O=C(P(=O)([O-])[O-])P(=O)([O-])[O-].[Pt+4].[Pt+4],> 100 µM,> 100 µM
CC1=C(C(=O)Nc2c(C)cccc2C)C(c2ccccc2Cl)C(C(=O)Nc2c(C)cccc2C)=C(C)N1,> 100 µM,
N#CC(NNC(=O)Cc1ccccc1)c1ccccc1O (stereo not drawn),> 100 µM,
COc1c(C)c2c(c(C)c1Cl)Oc1c(C=O)c(O)c(Cl)c(C)c1C(=O)O2,82.9 µM,

# Tested on: M14 melanoma
# Assay: inhibition of tumour cell growth, NCI panel, 48 h
Compound,TGI,GI50
Cc1cn(C2CC(N(O)Cc3ccccc3)C(CO)O2)c(=O)[nH]c1=O (stereo not drawn),> 100 µM,
O=c1[nH]cc(COCC(F)(F)C(F)(F)C(F)(F)C(F)F)c(=O)[nH]1,> 100 µM,
NC1CCCC[C@H]1N.N[C@@H]1CCCC[C@@H]1N.O=C(P(=O)([O-])[O-])P(=O)([O-])[O-].[Pt+4].[Pt+4],> 100 µM,> 100 µM
CC1=C(C(=O)Nc2c(C)cccc2C)C(c2ccccc2Cl)C(C(=O)Nc2c(C)cccc2C)=C(C)N1,> 100 µM,
N#CC(NNC(=O)Cc1ccccc1)c1ccccc1O (stereo not drawn),24.2 µM,
COc1c(C)c2c(c(C)c1Cl)Oc1c(C=O)c(O)c(Cl)c(C)c1C(=O)O2,> 100 µM,

# Tested on: M19-MEL melanoma
# Assay: inhibition of tumour cell growth, NCI panel, 48 h
Compound,TGI,GI50
Cc1cn(C2CC(N(O)Cc3ccccc3)C(CO)O2)c(=O)[nH]c1=O (stereo not drawn),> 100 µM,
O=c1[nH]cc(COCC(F)(F)C(F)(F)C(F)(F)C(F)F)c(=O)[nH]1,> 100 µM,
NC1CCCC[C@H]1N.N[C@@H]1CCCC[C@@H]1N.O=C(P(=O)([O-])[O-])P(=O)([O-])[O-].[Pt+4].[Pt+4],> 100 µM,73 µM
CC1=C(C(=O)Nc2c(C)cccc2C)C(c2ccccc2Cl)C(C(=O)Nc2c(C)cccc2C)=C(C)N1,> 100 µM,
N#CC(NNC(=O)Cc1ccccc1)c1ccccc1O (stereo not drawn),27 µM,
COc1c(C)c2c(c(C)c1Cl)Oc1c(C=O)c(O)c(Cl)c(C)c1C(=O)O2,> 100 µM,

# Tested on: MALME-3M melanoma
# Assay: inhibition of tumour cell growth, NCI panel, 48 h
Compound,TGI,GI50
O=c1[nH]cc(COCC(F)(F)C(F)(F)C(F)(F)C(F)F)c(=O)[nH]1,> 100 µM,
NC1CCCC[C@H]1N.N[C@@H]1CCCC[C@@H]1N.O=C(P(=O)([O-])[O-])P(=O)([O-])[O-].[Pt+4].[Pt+4],> 100 µM,> 100 µM
CC1=C(C(=O)Nc2c(C)cccc2C)C(c2ccccc2Cl)C(C(=O)Nc2c(C)cccc2C)=C(C)N1,> 100 µM,
N#CC(NNC(=O)Cc1ccccc1)c1ccccc1O (stereo not drawn),73.4 µM,
COc1c(C)c2c(c(C)c1Cl)Oc1c(C=O)c(O)c(Cl)c(C)c1C(=O)O2,61 µM,

# Tested on: MCF7 breast
# Assay: inhibition of tumour cell growth, NCI panel, 48 h
row,Compound,TGI
1,N#CC(NNC(=O)Cc1ccccc1)c1ccccc1O (stereo not drawn),> 89.5 µM

# Tested on: MDA-MB-231 breast
# Assay: inhibition of tumour cell growth, NCI panel, 48 h
row,Compound,TGI
1,N#CC(NNC(=O)Cc1ccccc1)c1ccccc1O (stereo not drawn),> 72 µM

# Tested on: MDA-MB-435
# Assay: inhibition of tumour cell growth, NCI panel, 48 h
row,Compound,TGI
1,N#CC(NNC(=O)Cc1ccccc1)c1ccccc1O (stereo not drawn),> 100 µM

# Tested on: MDA-N
# Assay: inhibition of tumour cell growth, NCI panel, 48 h
row,Compound,TGI
1,N#CC(NNC(=O)Cc1ccccc1)c1ccccc1O (stereo not drawn),> 100 µM

# Tested on: MOLT-4 leukemia
# Assay: inhibition of tumour cell growth, NCI panel, 48 h
Compound,TGI,GI50
Cc1cn(C2CC(N(O)Cc3ccccc3)C(CO)O2)c(=O)[nH]c1=O (stereo not drawn),> 100 µM,
O=c1[nH]cc(COCC(F)(F)C(F)(F)C(F)(F)C(F)F)c(=O)[nH]1,> 100 µM,
NC1CCCC[C@H]1N.N[C@@H]1CCCC[C@@H]1N.O=C(P(=O)([O-])[O-])P(=O)([O-])[O-].[Pt+4].[Pt+4],> 100 µM,16 µM
